# Counter-ions that a name gives are not always drawn.
# Key:
# [1] = test system: primary MRC5 fibroblasts aged in culture; assay: Misshapen nuclei in aged MRC5 cells; type: cell-based, human; conditions: population doubling 44
# Text: FIG. 10: Remodelin rescues nuclear shape of aged MRC5 cells but not WS cells in a dose dependent manner. A) Misshapen nuclei observed by DAPI staining in MRC5 aged cells in culture, at population doubling 44 (PD44) were rescued by Remodelin. B) Quantification of misshapen nuclei after increasing concentrations of Remodelin (mean of three independent experiments±s.e.m.). C) DAPI staining of non-laminopathic Werner Syndrome cells (WS) showing no nuclear shape improvement upon Remodelin treatment. D) Cell Profiler quantification of misshapen nuclei (mean of three independent experiments±s.d. n>273). Scale bars: 50 μm.
# U2OS and SaOS-2 osteosarcoma cells, HeLa cervical cancer cells, A431 melanoma cells, NCI-SNU5 gastric cancer cells, MRC-5 lung fibroblast cells and Werner syndrome patient-derived SV40 fibroblast cells were grown in Dulbecco's modified Eagle medium (DMEM, Sigma-Aldrich) supplemented with 10% fetal bovine serum (BioSera), 2 mM L-glutamine, 100 U per ml penicillin, 100 μg ml^−1 streptomycin. Normal skin primary fibroblasts GM03440 and Hutchinson Gilford Progeria Syndrome (HGPS) skin primary fibroblasts AG11498 and AG06297 were purchased from Coriell Cell Repositories and used between passage number 9-12 and 20-23 respectively. Cells were grown in DMEM supplemented as above. […] Cells were analysed 48 to 72 hours after transfection.
# [2] = test system: siLMNA cells; assay: Micrococcal nuclease digestion sensitivity assay and nuclear area (chromatin compaction); type: cell-based, human
# Procedure: CellProfiler software was used to quantify nuclear circularity and nuclear area from DAPI staining pictures, using the “object size shape” measurement. The AreaShape measurement allowed the calculation of the Form Factor index ([…]) corresponding to circularity (a Form Factor of 1 reflecting a perfect circle), as well as the calculation of nuclear Area.
# 1×10^6 cells were trypsinized, harvested, and washed once with 1 ml of 1×RSB buffer (10 mM Tris, pH 7.6, 15 mM NaCl, and 1.5 mM MgCl2). After centrifugation ([…]), the cell pellet was resuspended in 1 ml of 1×RSB buffer with 1% Triton-X 100 and homogenized by five strokes with a loose-fitting glass pestle to release nuclei. Nuclei were collected by centrifugation (13,000×g) and washed twice with 1 ml of buffer A (15 mM Tris, pH 7.5, 15 mM NaCl, 60 mM KCl, 0.34 M sucrose, 0.5 mM spermidine, 0.15 mM spermine, 0.25 mM PMSF, and 0.1% β-mercaptoethanol). Nuclei were resuspended in Buffer A and aliquoted into 100 μl aliquots. […] DNA was purified using the Qiagen PCR purification kit and 1500 ng of DNA was analysed on a 1.5% agarose gel. Digestion profiles were analysed using ImageJ and values were adjusted relative to the global intensity of each lane to compensate for DNA loading variations.
# [3] = test system: cancer cell lines displaying reduced Lamin A/C expression; assay: Nuclear morphology of cancer cell lines with reduced Lamin A/C expression (DAPI); type: cell-based, human
# Text: FIG. 2: Small molecule Compound 2 rescues nuclear shape defects in various Lamin A/C depleted cells. A) and B) Nuclear shape visualization by DAPI staining of HeLa (A) or RPE-1 (B) cells depleted for Lamin A/C (siLMNA) and treated with various KATi. Scale bars: 50 μm. C) and D) Cell Profiler quantification of nuclear circularity of HeLa (C) or RPE-1 (D) cells from DAPI staining as shown in A) and B) (means of three independent experiments with n>252±s.d). E) Cell cycle profile analysed by flow cytometry. PI: propidium iodide. F) Analysis of Lamin A/C expression levels in indicated cancer cell lines. Bottom panel: Image J quantification of Lamin A/C expression in cancer cells relative to normal RPE-1 cells. G) Representative pictures of DAPI staining showing nuclear shape improvement in low Lamin A/C expressing cancer cells after treatment with Compound 2. Scale bars: 20 μm.
# U2OS and SaOS-2 osteosarcoma cells, HeLa cervical cancer cells, A431 melanoma cells, NCI-SNU5 gastric cancer cells, MRC-5 lung fibroblast cells and Werner syndrome patient-derived SV40 fibroblast cells were grown in Dulbecco's modified Eagle medium (DMEM, Sigma-Aldrich) supplemented with 10% fetal bovine serum (BioSera), 2 mM L-glutamine, 100 U per ml penicillin, 100 μg ml^−1 streptomycin. […] Cells were analysed 48 to 72 hours after transfection.
# [4] = test system: LMNA KO U2OS cells; assay: Global protein translation by HPG incorporation (FACS), LMNA KO; type: cell-based, human; conditions: 24 h treatment, 1 h HPG
# Procedure: U2OS cells expressing wild type or KO LMNA were treated with Compound 2 for 24 h and incubated for 1 h with the clickable methionine analogue HPG to measure global protein translation. HPG was then clicked with an Alexa fluor 488 and global fluorescence intensity was quantified by FACS on 10 000 cells.
# [5] = test system: prostate 22RV1 cancer cells; assay: Matrigel invasion assay; type: cell-based, human; conditions: 50 μM
# Procedure: FIG. 15: Compound 2 inhibits the proliferation, migration and invasion of cancer cells with low Lamin A/C expression. […] C) Quantification of transwell migration assays and matrigel invasion assays from the indicated low expressing cancer cell lines after treatment with 50 μM of compound 2.
# [6] = test system: cells (sub-cellular distribution); assay: Fluorescent labelling of clickable molecules (sub-cellular distribution); type: cell-based; conditions: 2 hours pre-incubation, Alexa fluor 488 Azide click
# Procedure: Cells were pre-incubated with clickable molecules Compound 3 or Reference Compound A (1-Chloro-4-ethynilbenzene, purchased from Sigma-Aldrich) for 2 hours before being fixed and permeabilised as described above. Click reaction was prepared using Invitrogen Click-iT reagents with Alexa fluor 488 Azide and incubated with fixed cells for 1 hour in the dark. In case of co-labelling with another protein, the click reaction was performed before the antibody incubations.
structure (smiles),measurement,setting,value
"N#Cc1ccc(-c2csc(NN=C3CCCC3)n2)cc1 [Compound 1, 4-(4-Cyanophenyl)-2-(2-cyclopentylidenehydrazinyl)thiazole]",misshapen nuclei of aged MRC5 cells,[1],also had this effect on primary MRC5 fibroblasts aged in culture
"Clc1ccc(-c2csc(NN=C3CCCC3)n2)cc1 [Compound 2, 4-(4-Chlorophenyl)-2-(2-cyclopentylidenehydrazinyl)thiazole Hydrochloride Salt]",global chromatin compaction (MNase sensitivity),[2],decreased MNase sensitivity
same,nuclear area,[2],reduced nuclear area
same,nuclear morphology of cancer cell lines,[3],improved the nuclear morphology of several cancer cell lines
same,global protein translation (HPG fluorescence intensity),[4],strong reduction of global protein translation
same,matrigel invasion of 22RV1 cells,[5],no invasion upon treatment
"C#CCN(N=C1CCCC1)c1nc(-c2ccc(Cl)cc2)cs1 [Compound 3, 4-(4-Chlorophenyl)-2-(2-cyclopentylidene-1-(prop-2-yn-1-yl)hydrazinyl)thiazole]",sub-cellular distribution of fluorescently labelled molecule,[6],predominant accumulation of Compound 3 in nucleoli
